Test: dissolution rate of ketoprofen in 0.1 N HCl
Type: physicochemical
Conditions: granulated with microcrystalline cellulose

CC(C(=O)O)c1cccc(C(=O)c2ccccc2)c1 (centres unmarked) [ketoprofen, Ketoprofen]
dissolution rate of ketoprofen in 0.1N HCl (change after processing) (Example 1: ketoprofen ground/mixed with distilled water in TSGM, 200 rpm, 25° C., dried at 40° C.): increased two-fold
dissolution rate of ketoprofen in 0.1N HCl (change after processing) (Example 2: ketoprofen ground/mixed with 10% aqueous solution of Labrasol in TSGM): increased two-fold
dissolution rate of ketoprofen in 0.1N HCl (change after processing) (Example 3: ketoprofen ground/mixed with 10% aqueous solution of Tween 80 in TSGM): increased four-fold
dissolution rate of ketoprofen in 0.1N HCl (change after processing) (Example 4: ketoprofen ground/mixed with 10% aqueous solution of Capryol 90 in TSGM): increased two-fold
dissolution rate of ketoprofen in 0.1N HCl (change after processing) (Example 5: ketoprofen ground/mixed with 10% aqueous solution of polyvinylpyrrolidone in TSGM): increased three-fold
